Laboratory results published in ChEMBL document CHEMBL5113439, “Rationally Designed Amanitins Achieve Enhanced Cytotoxicity” (J Med Chem, 2022).
Numbered stars: 1 amine (or outer) side, 2 acyl side, 3 side chain; on linkers, the order of the positions; unused ones are H or OH. Bridge positions count the residues as written; N and C are the ends. Square brackets hold non-standard residues; d marks the D form. Peptide text beside a SMILES is read from it. Trp(2-yl) = O=C([C@H](Cc1c([*:3])[nH]c2ccccc12)N[*:1])[*:2]; X4 = O=C([C@H](Cc1c([*:3])[nH]c2ccc(O)cc12)N[*:1])[*:2]; Ile(4R-OH,5-OH) = C[C@H]([C@H](N)C(=O)O)[C@@H](O)CO; X5 = C[C@@H](S[*:3])[C@H](N[*:1])C(=O)[*:2]; X2 = CC[C@H](C)[C@@H](CNNC(=O)[*:2])N[*:1]; X3 = C[C@H](S[*:3])[C@H](N[*:1])C(=O)[*:2]; X1 = CS[C@H](C)[C@H](N[*:1])C(=O)[*:2]; Nva(3-Et) = CCC(CC)[C@H](N)C(=O)O; αMeI = CC[C@H](C)[C@](C)(N)C(=O)O; Hyp = O=C(O)[C@@H]1C[C@@H](O)CN1; Pen = CC(C)(S)[C@H](N)C(=O)O; azaGly = NNC(=O)O

What was measured:
[1] = Cytotoxicity against chinese hamster CHO cells assessed as reduction in cell viability incubated for 72 hrs by MTT assay; type: toxicity, cell-based, Cricetulus griseus
[2] = Inhibition of RNA polymerase 2 in human HeLa cells nuclear extract using DNA template as substrate incubated for 60 mins by TRA; type: subcellular, Nucleus
[3] = Cytotoxicity against human HEK293 cells assessed as reduction in cell viability incubated for 72 hrs by MTT assay; type: toxicity, cell-based
HepG2 = assay: Cytotoxicity against human HepG2 cells assessed as reduction in cell viability incubated for 72 hrs by MTT assay; type: functional, cell-based; details: HepG2, 72 h
HeLa = assay: Cytotoxicity against human HeLa cells assessed as reduction in cell viability incubated for 72 hrs by MTT assay; type: functional, cell-based

SMILES	IC50 at 72 h [1] [µM]	IC50 [2] [µM]	IC50 at 72 h [3] [µM]	IC50 (HepG2) [µM]	IC50 (HeLa) [µM]
CC[C@H](C)[C@@H]1NC(=O)CNC(=O)[C@@H]2Cc3c([nH]c4ccccc34)SC(C)(C)[C@H](NC(=O)CNC1=O)C(=O)N[C@@H](CC(N)=O)C(=O)N1C[C@H](O)C[C@H]1C(=O)N[C@@H]([C@@H](C)[C@@H](O)CO)C(=O)N2 (cyclo(GIG[Pen]N[Hyp][Ile(4R-OH,5-OH)][Trp(2-yl)]); thioether 4-8)	9.3	0.0177	–	–	–
CC[C@H](C)[C@@H]1NC(=O)CNC(=O)[C@@H]2Cc3c([nH]c4ccccc34)S[C@@H](C)[C@H](NC(=O)CNC1=O)C(=O)N[C@@H](CC(N)=O)C(=O)N1C[C@H](O)C[C@H]1C(=O)N[C@@H]([C@@H](C)[C@@H](O)CO)C(=O)N2 (cyclo(GIG[X3]N[Hyp][Ile(4R-OH,5-OH)][Trp(2-yl)]); thioether 4-8)	1.3	0.01	0.51	–	–
CS[C@H](C)[C@@H]1NC(=O)CNC(=O)[C@@H]2Cc3c([nH]c4ccccc34)SC[C@H](NC(=O)CNC1=O)C(=O)N[C@@H](CC(N)=O)C(=O)N1C[C@H](O)C[C@H]1C(=O)N[C@@H]([C@@H](C)[C@@H](O)CO)C(=O)N2 (cyclo(CN[Hyp][Ile(4R-OH,5-OH)][Trp(2-yl)]G[X1]G); thioether 1-5)	5.6	0.0086	1.5	> 10	4
CC[C@H](C)[C@@H]1NC(=O)CNC(=O)[C@@H]2Cc3c([nH]c4ccccc34)SC[C@H](NC(=O)CNC1=O)C(=O)N[C@@H](CC(N)=O)C(=O)N1C[C@H](O)C[C@H]1C(=O)N[C@@H]([C@@H](C)[C@@H](O)CO)C(=O)N2 (cyclo(CN[Hyp][Ile(4R-OH,5-OH)][Trp(2-yl)]GIG); thioether 1-5)	1.3	0.0095	–	–	–
C[C@H]([C@@H]1NC(=O)[C@@H]2C[C@@H](O)CN2C(=O)[C@H](CC(N)=O)NC(=O)[C@@H]2CSc3[nH]c4ccccc4c3C[C@H](NC1=O)C(=O)NCC(=O)N[C@H](C1CCCC1)C(=O)NCC(=O)N2)[C@@H](O)CO	6.9	0.047	–	–	–
CC[C@H](C)[C@]1(C)NC(=O)NNC(=O)[C@@H]2Cc3c([nH]c4ccccc34)SC[C@H](NC(=O)CNC1=O)C(=O)N[C@@H](CC(N)=O)C(=O)N1C[C@H](O)C[C@H]1C(=O)N[C@@H]([C@@H](C)[C@@H](O)CO)C(=O)N2 (cyclo(CN[Hyp][Ile(4R-OH,5-OH)][Trp(2-yl)][azaGly][αMeI]G); thioether 1-5)	2.4	0.0053	0.45	–	–
CCC(CC)[C@@H]1NC(=O)CNC(=O)[C@@H]2Cc3c([nH]c4ccc(O)cc34)SC[C@H](NC(=O)CNC1=O)C(=O)N[C@@H](CC(N)=O)C(=O)N1C[C@H](O)C[C@H]1C(=O)N[C@@H]([C@@H](C)[C@@H](O)CO)C(=O)N2 (cyclo(CN[Hyp][Ile(4R-OH,5-OH)][X4]G[Nva(3-Et)]G); thioether 1-5)	2.5	0.0178	0.32	–	–
CCC(CC)[C@@H]1NC(=O)CNC(=O)[C@@H]2Cc3c([nH]c4ccccc34)S[C@@H](C)[C@H](NC(=O)CNC1=O)C(=O)N[C@@H](CC(N)=O)C(=O)N1C[C@H](O)C[C@H]1C(=O)N[C@@H]([C@@H](C)[C@@H](O)CO)C(=O)N2 (cyclo(G[Nva(3-Et)]G[X3]N[Hyp][Ile(4R-OH,5-OH)][Trp(2-yl)]); thioether 4-8)	0.61	0.0095	0.2	0.11	0.6
CCC(CC)[C@@H]1NC(=O)CNC(=O)[C@@H]2Cc3c([nH]c4ccccc34)SC[C@H](NC(=O)CNC1=O)C(=O)N[C@@H](CC(N)=O)C(=O)N1C[C@H](O)C[C@H]1C(=O)N[C@@H]([C@@H](C)[C@@H](O)CO)C(=O)N2 (cyclo(CN[Hyp][Ile(4R-OH,5-OH)][Trp(2-yl)]G[Nva(3-Et)]G); thioether 1-5)	0.78	0.0085	0.37	–	–
CC[C@H](C)[C@@H]1NC(=O)CNC(=O)[C@@H]2Cc3c([nH]c4cc(O)ccc34)[S+]([O-])C[C@H](NC(=O)CNC1=O)C(=O)N[C@@H](CC(N)=O)C(=O)N1C[C@H](O)C[C@H]1C(=O)N[C@@H]([C@@H](C)[C@@H](O)CO)C(=O)N2 (stereo partly drawn)	1	0.001	1	0.56	1
CCC(CC)[C@@H]1NC(=O)CNC(=O)[C@@H]2Cc3c([nH]c4ccc(O)cc34)S[C@@H](C)[C@H](NC(=O)CNC1=O)C(=O)N[C@@H](CC(N)=O)C(=O)N1C[C@H](O)C[C@H]1C(=O)N[C@@H]([C@@H](C)[C@@H](O)CO)C(=O)N2 (cyclo(G[Nva(3-Et)]G[X3]N[Hyp][Ile(4R-OH,5-OH)][X4]); thioether 4-8)	2.4	0.0138	0.51	–	–
CC[C@H](C)[C@@H]1NC(=O)CNC(=O)[C@@H]2Cc3c([nH]c4ccc(O)cc34)S[C@@H](C)[C@H](NC(=O)CNC1=O)C(=O)N[C@@H](CC(N)=O)C(=O)N1C[C@H](O)C[C@H]1C(=O)N[C@@H]([C@@H](C)[C@@H](O)CO)C(=O)N2 (cyclo(GIG[X3]N[Hyp][Ile(4R-OH,5-OH)][X4]); thioether 4-8)	6.9	0.0147	0.88	–	–
CC[C@H](C)[C@H]1CNNC(=O)N[C@H]2CSc3[nH]c4ccccc4c3C[C@H](NC(=O)[C@H]([C@@H](C)[C@@H](O)CO)NC(=O)[C@@H]3C[C@@H](O)CN3C(=O)[C@H](CC(N)=O)NC2=O)C(=O)NCC(=O)N1 (cyclo(CN[Hyp][Ile(4R-OH,5-OH)][Trp(2-yl)]G[X2]); thioether 1-5)	0.38	0.0047	0.46	2.7	0.83
CC[C@H](C)[C@@H]1NC(=O)CNC(=O)[C@@H]2Cc3c([nH]c4ccccc34)S[C@H](C)[C@H](NC(=O)CNC1=O)C(=O)N[C@@H](CC(N)=O)C(=O)N1C[C@H](O)C[C@H]1C(=O)N[C@@H]([C@@H](C)[C@@H](O)CO)C(=O)N2 (cyclo(GIG[X5]N[Hyp][Ile(4R-OH,5-OH)][Trp(2-yl)]); thioether 4-8)	> 20	> 0.128	–	–	–
CO[C@H](C)[C@@H]1NC(=O)CNC(=O)[C@@H]2Cc3c([nH]c4ccccc34)SC[C@H](NC(=O)CNC1=O)C(=O)N[C@@H](CC(N)=O)C(=O)N1C[C@H](O)C[C@H]1C(=O)N[C@@H]([C@@H](C)[C@@H](O)CO)C(=O)N2 (cyclo(CN[Hyp][Ile(4R-OH,5-OH)][Trp(2-yl)]GT(Me)G); thioether 1-5)	> 20	0.042	–	–	–
